From the NIST ThermoML archive (doi:10.1016/j.jct.2018.02.022)

Assay: xn = mol fraction of the nth substance listed
Settings: 92.3 kPa, Liquid; for viscosity: Concentric cylinders viscometry; for speed of sound: Frequency=3 MHz, Single path-length method; for mass density: Vibrating tube method

OCCO [1,2-ethanediol] + O
Settings | mass density, 293.15 K [kg/m3] | mass density, 298.15 K [kg/m3] | speed of sound, 293.15 K [m/s] | speed of sound, 298.15 K [m/s] | viscosity, 293.15 K [mPa·s] | viscosity, 298.15 K [mPa·s]
x1 = 0.0101 | 1002.83 | 1001.54 | 1498.9 | 1511.9 | – | –
x1 = 0.0201 | 1006.96 | 1005.57 | 1514.6 | 1526.3 | – | –
x1 = 0.0302 | 1011.02 | 1009.56 | 1529.7 | 1540.2 | – | –
x1 = 0.0407 | 1015.07 | 1013.5 | 1544.6 | 1553.8 | – | –
x1 = 0.0494 | 1018.4 | 1016.76 | – | – | 1.541 | 1.253
x1 = 0.0506 | 1018.75 | 1017.08 | 1558.1 | 1566.2 | – | –
x1 = 0.0605 | 1022.31 | 1020.55 | 1570.8 | 1577.9 | – | –
x1 = 0.0704 | 1025.78 | 1023.96 | 1583.2 | 1589.2 | – | –
x1 = 0.0801 | 1029.04 | 1027.15 | 1594 | 1599 | – | –
x1 = 0.0905 | 1032.34 | 1030.37 | 1605.6 | 1609.6 | – | –
x1 = 0.0986 | 1034.8 | 1032.78 | – | – | 2.078 | 1.68
x1 = 0.0997 | 1035.3 | 1033.24 | 1614.8 | 1618 | – | –
x1 = 0.1483 | 1048.46 | 1046.12 | – | – | 2.699 | 2.167
x1 = 0.1493 | 1048.74 | 1046.4 | 1656.2 | 1655.5 | – | –
x1 = 0.1985 | 1059.45 | 1056.96 | 1684.5 | 1681 | – | –
x1 = 0.2072 | 1061.51 | 1058.86 | – | – | 3.517 | 2.811
x1 = 0.2466 | 1068.68 | 1065.86 | – | – | 4.104 | 3.276
x1 = 0.2487 | 1069.2 | 1066.32 | 1702.1 | 1696.5 | – | –
x1 = 0.298 | 1076.5 | 1073.51 | – | – | 4.94 | 3.936
x1 = 0.2998 | 1076.8 | 1073.79 | 1712.9 | 1705.8 | – | –
x1 = 0.3318 | 1080.9 | 1077.77 | 1716.6 | 1708.7 | – | –
x1 = 0.3399 | 1081.8 | 1078.69 | – | – | 5.663 | 4.507
x1 = 0.3921 | 1087.31 | 1084.09 | – | – | 6.621 | 5.261
x1 = 0.3981 | 1087.84 | 1084.61 | 1719.4 | 1710.4 | – | –
x1 = 0.4446 | 1091.88 | – | – | – | 7.638 | 6.062
x1 = 0.4521 | 1092.39 | – | 1718.6 | 1708.8 | – | –
x1 = 0.4934 | 1095.4 | 1092.05 | 1716.1 | 1705.9 | – | –
x1 = 0.5007 | – | 1092.56 | – | – | 8.782 | 6.959
x1 = 0.5485 | 1098.81 | 1095.42 | – | – | 9.81 | 7.764
x1 = 0.552 | 1099 | – | 1711.5 | 1700.9 | – | –
x1 = 0.5846 | 1100.79 | 1097.38 | 1708.3 | 1697.6 | – | –
x1 = 0.6004 | 1101.51 | 1098.09 | – | – | 10.95 | 8.662
x1 = 0.6451 | 1103.53 | 1100.1 | – | – | 11.97 | 9.461
x1 = 0.6481 | 1103.65 | 1100.22 | 1702.1 | 1691 | – | –
x1 = 0.6773 | 1104.88 | 1101.43 | 1699 | 1687.8 | – | –
x1 = 0.7012 | 1105.75 | 1102.3 | – | – | 13.33 | 10.55
x1 = 0.7421 | 1107.16 | 1103.69 | 1692.2 | 1680.8 | – | –
x1 = 0.7435 | 1107.22 | 1103.76 | – | – | 14.35 | 11.32
x1 = 0.7811 | 1108.41 | 1104.94 | 1688 | 1676.5 | – | –
x1 = 0.7907 | 1108.69 | 1105.22 | – | – | 15.51 | 12.24
x1 = 0.8497 | – | 1106.83 | 1681 | 1669.3 | – | –
x1 = 0.8505 | – | 1106.84 | – | – | 16.94 | 13.35
x1 = 0.89 | 1111.29 | 1107.8 | – | – | 17.91 | 14.12
x1 = 0.9002 | 1111.55 | 1108.06 | 1676 | 1664.3 | – | –
x1 = 0.9059 | 1111.66 | 1108.17 | 1675.5 | 1663.8 | – | –
x1 = 0.912 | 1111.78 | 1108.29 | 1675 | 1663.3 | – | –
x1 = 0.9299 | 1112.18 | 1108.69 | 1673.3 | 1661.5 | – | –
x1 = 0.9413 | 1112.43 | 1108.94 | 1672.2 | 1660.4 | – | –
x1 = 0.9495 | 1112.62 | 1109.13 | 1671.4 | 1659.6 | – | –
x1 = 0.9532 | 1112.69 | 1109.19 | – | – | 19.48 | 15.35
x1 = 0.9546 | 1112.73 | 1109.23 | 1671 | 1659.2 | – | –
x1 = 0.9681 | 1112.99 | 1109.49 | 1669.9 | 1658.1 | – | –
x1 = 0.9789 | 1113.19 | – | 1669 | 1657.2 | – | –
x1 = 0.9893 | 1113.4 | – | 1667.9 | 1656.1 | – | –
x1 = 1 | 1113.72 | – | 1666.5 | 1654.7 | 20.61 | 16.22
